Data reported in paper PMC11522800 (Frontiers in Immunology, 2024).
Where two headings read alike, the source gives them in different places. One block for each molecule: values may come before it.

Columns and labels:
[1] = Description: Cohort 1 received 50 mg of each dipeptide in 300 mL water. Cohort 2 received 100 mL Peptamen first, then 50 mg of each dipeptide in 150 mL water, followed by another 50 mL water. All drinks were taken within a minute. Cohort 3 received 100 mL Peptamen first, then a reduced dose of 5 mg of each dipeptide in 150 mL water, followed by another 50 mL water. All drinks were taken within a minute. Blood samples were collected after 15 min, 30 min, 45 min, 1 h, 2 h, 3 h, 4 h, 6 h, 8 h, 10 h, 14 h, 48 h and 72 h after dosing. Urine was collected and pooled at 0-4 h, 4-6 h, and 6-10 h, and was collected as spot urine at 48 h and 72 h after dosing.
Plasma samples were thawed on ice, mixed, and 100 µL of each sample was transferred to a 1.5 mL LoBind reaction tube. Plasma samples were precipitated after adding 200 µL of acetonitrile/methanol (10:1), and incubated on ice for 15 min. Samples were centrifuged at 16,000 g for 15 min at 4 °C. 100 µL supernatant was dried under nitrogen at 40 °C. Samples were reconstituted in 100 µL 0.1% formic acid and 5 µL was applied to the LC-MS/MS instrument.
Labelled XP dipeptides and single amino acids (P*, L*, F*) in plasma samples were quantified by LC-MS/MS using Nexera LC40 HPLC system (Shimadzu, Duisburg, Germany) coupled to an API 6500+ ™ tandem mass spectrometer (AB Sciex, Darmstadt, Germany). For chromatographic separation an ACQUITY UPLC HSS PFP Column (100 Å, 1.8 µm, 2.1 mm X 150 mm; Waters, Eschborn, Germany) protected by a SecurityGuard C18 column (4x2 mm; Phenomenex, Aschaffenburg, Germany) was used. Chromatographic separation was performed at an oven temperature of 40°C and the solvent flow rate was set to 400 µL/min. Elution was achieved by varying composition of solvent A (90% acetonitrile + methanol (6 + 1), 0.1% formic acid in H2O) and solvent B (0.1% formic acid in H2O) using following LC conditions: 0-1.4 min 0% solvent A; 1.4-10.4 min 0-50% solvent A; 10.5-12.9 min 80% solvent A; 13-15 min 0% solvent A. To decrease the introduction of debris into the MS, a valve was directed to waste at 0.1-1 min and 9.5-14.9 min.
MS detection of labelled amino acids and XP dipeptides was performed in positive mode with curtain gas set to 40, gas 1 of 50, gas 2 of 70, temperature of 500°C and an IS of 3500. Detection was achieved using MS parameters and mass transitions listed in Supplementary Table 3 .
LC-MS/MS-generated chromatograms were analyzed using Analyst 1.7.2 (Sciex, Darmstadt, Germany). The pharmacokinetics parameter AUC was calculated using GraphPad Prism version 8.0 (GraphPad Prism Software Inc., La Jolla, CA, USA). Partial AUCs were calculated manually using the trapezoidal rule.
Statistical analyses were performed using SPSS Statistics Version 28 (SPSS Inc., IBM, Chicago, IL, USA). To compare the effects between cohorts in the dipeptide resorption study the one-tailed Mann-Whitney-Test was applied. To compare the effects between enzyme supplementation and controls during the proof-of-concept study the one tailed Wilcoxon matched-pairs signed rank test was applied.

[2] = plasma of healthy volunteers after oral administration of SI-labelled XP dipeptides (with water or Peptamen); conditions: human (healthy volunteers), up to 72 h
[3] = tested on: gastric, pancreatic, and intestinal peptidases; experiment: human gastric, pancreatic, and intestinal peptidases; conditions: cited from earlier work
[4] = tested on: AMYNOPEP (dipeptidyl peptidase : aminopeptidase, 1:1 ratio); experiment: in vitro with AMYNOPEP at an enzyme ratio of 1:1
[5] = tested on: AMYNOPEP (dipeptidyl peptidase and aminopeptidase, 1:10 enzyme ratio); experiment: Tris buffer at pH 7.0 using an enzyme mixture consisting of 0.86 mg/L dipeptidyl peptidase and 8.6 mg/L aminopeptidase; conditions: 37°C, up to 60 minutes

Molecule: O=C(O)[C@@H]1CCCN1 [P*, proline]
reduction in plasma AUC of labelled amino acid on dose reduction from 50 mg to 5 mg of each XP ([1]; human, in vivo, po): 11.5 fold

Molecule: F*P*
cleaved bond [2]: F*-P*

Molecule: L*P*
cleaved bond [2]: L*-P*

Molecule: LQLQPFPQPQLPYPQPQLPYPQPQLPYPQPQPF
not cleaved [3]: thought to be stable to proteolytic digestion | cleaved bond [4]: P-F | cleaved bond [5]: L-Q, 5 min and P-Q and Q-L and P-Y and P-F, within 30 minutes and Q-L, 5 min and P-F, 5 min and P-Q, 5 min

Results, then the molecule that gave them:

reduction in plasma AUC of labelled amino acid on dose reduction from 50 mg to 5 mg of each XP ([1]; oral XP dipeptides taken with 100 mL Peptamen, n=3 healthy volunteers per cohort, LC-MS/MS): 9.5 fold | SI-labelled amino acid detection in plasma after oral XP dipeptides ([1]; oral, 50 mg each of F*P*, LP*, L*P* in water, n=3 healthy volunteers, HPLC-MS/MS): detectable | decrease in plasma AUC of labelled amino acid with Peptamen relative to water ([1]; oral, 50 mg of each XP dipeptide with 100 mL Peptamen vs water, n=3 healthy volunteers per cohort, LC-MS/MS): 2.1 fold
Molecule: N[C@@H](Cc1ccccc1)C(=O)O [F*, phenylalanine]

reduction in plasma AUC of labelled amino acid on dose reduction from 50 mg to 5 mg of each XP ([1]; human, in vivo, po): 13.2 fold
Molecule: CC(C)C[C@H](N)C(=O)O [L*, leucine]
